Measured values as given in patent US20170252327A1, “Methods of Modulating Gastrointestinal Tract Flora Levels with Alkaline Phosphatase” (priority 2008, published 2017).

Legend:
gut microbiota [1] = test: Restoration of gut flora after ampicillin treatment with or without cIAP (stool culture in LB media); assay type: in vivo, mice (C57BL/6)
Method: An experiment was performed in which five mice (C57BL/6) of each test group, approximately 6 weeks old, were treated with 1 mg/ml of the antimicrobial drug ampicillin, in the presence or absence of calf intestinal alkaline phosphatase (cIAP) (New England Biolabs, Ipswich, Mass.). Ampicillin was administered orally with the animal's drinking water at a concentration of 1 mg/ml, and 250 units of cIAP were administered twice daily as oral gavage. Individual stool samples of each group were cultured in LB media each day and analyzed for the presence/absence of the gut flora. The gut flora of mice before receiving the antibiotic was considered as a baseline control for normal gastrointestinal tract flora (present in all samples). […] Both treatment groups received ampicillin for 10 days.

gut microbiota [2] = test: Restoration of gut flora after streptomycin treatment with or without cIAP (stool culture in LB media); assay type: in vivo, mice (C57BL/6)
Method: To address the role of intestinal alkaline phosphatase on the gastrointestinal tract flora of mammals, an experiment was performed in which five approximately six week old mice (C57BL/6) of each test group were treated with an antimicrobial drug, streptomycin, in the presence or absence of calf intestinal alkaline phosphatase (cIAP) (Sigma, St. Louis, Mo.). Both streptomycin (5 mg/ml) and cIAP (50 units/ml) were administered orally with the animal's drinking water. Individual stool samples of each group were cultured in LB media each day and analyzed for the presence/absence of gut flora. The gastrointestinal tract flora of mice before antibiotic treatment was considered as a baseline control for the normal gut flora (present in all samples).

[3] = tested on: Gram-negative bacteria (mostly E. coli); test: Restoration of commensal Gram-negative gut flora in streptomycin-treated WT mice with or without cIAP (MacConkey agar); assay type: in vivo; conditions: streptomycin 5 mg/ml in drinking water
Method: Accordingly, experiments were performed in which groups of WT mice (n=10) were treated orally with the antibiotic streptomycin in the presence or absence of cIAP. Streptomycin (5 mg/ml) and cIAP (200 U/ml for cIAP^+ Group, n=5) or ‘vehicle for cIAP’ (20 μl/ml ‘vehicle for cIAP’ (50 mM KCl, 10 mM Tris-HCl (pH 8.2), 1 mM MgCl, 0.1 mM ZnCl2, and 50% glycerol) in drinking water for control cIAP^− Group, n=5) were administered in the animals' drinking water and fecal cultures were performed.
Individual stool samples were cultured each day on MacConkey agar media. […] After discontinuation of antibiotic treatment, the time of appearance (Day) of Gram-negative bacteria (mostly E. coli, occasionally P. mirabilis) in stool samples was recorded for each animal. The experiment was repeated six times, which raised the total number of animals in each group to 39 (n=39), however, duration of each experiment varied (7-35 days). Data was compiled from all six experiments and the number of animals with E. coli in each group on a specific day was recorded.

IAP = test: Stool IAP activity in PTU-treated mice given T3 (hyperthyroid); assay type: in vivo
Source text: In WT mice, IAP (Akp3 isoform) is expressed at postnatal Day 15 (Narisawa et al., Am J Physiol Gastrointest Liver Physiol, 293:G1068, 2007), while IAP-KO mice lack this enzyme for their entire life. However, a variety of pathophysiological conditions can lead to altered IAP expression in adult WT animals, which may affect their intestinal flora. Accordingly, stool samples of hypothyroid and hyperthyroid mice were examined, since IAP is known to be silenced in hypothyroid animals and dramatically over-expressed in hyperthyroid animals (Hodin et al., Surgery, 120:138, 1996; Malo et al., Mol Endocrinol, 18:1941, 2004). For 32 weeks, groups of mice (n=5) were given water containing 0.05% propylthiouracil (PTU) in order to induce hypothyroidism by inhibiting both thyroid hormone biosynthesis and peripheral T4 deiodination (Cooper et al., Biochem Pharmacol, 33:3391, 1984). After 6 weeks of PTU treatment, one group received a daily i.p. injection of T3 (30 μg per 100 gm body weight, hyperthyroid) and the other group received a daily i.p. injection of normal saline (0.9% NaCl, hypothyroid) for 26 weeks (Hodin et al., Surgery, 120:138, 1996).
IAP activity was determined following the protocol as described by Baykov et al. (Anal Biochem, 171:266, 1988). Briefly, individual stool samples were homogenized in water (10 mg/100 μl), centrifuged and supernatant was collected. Then 25 μl of the stool supernatant (or aqueous cIAP solution) were mixed with 175 μl phosphatase assay reagent containing 5 mM of p-nitrophenyl phosphate (pNPP) followed by determining optical density at 405 nm after a specific time period when the samples usually turned yellow due to release of p-nitrophenol. Protein concentrations of stool supernatants were measured using a kit from Bio-Rad Laboratories (Hercules, Calif.). The specific activity of the enzyme, expressed as pmole pNPP hydrolyzed per minute per μg of protein, and CFU per gm of stool +/− SEM were determined and the results are shown in FIG. 3. […]

`CC1(C)S[C@@H]2[C@H](NC(=O)[C@H](N)c3ccccc3)C(=O)N2[C@H]1C(=O)O` [Ampicillin alone, ampicillin] was tested, and the “Bacteria in the stool” value (gut microbiota [1]; Day 1) was “Present”, the “Bacteria in the stool” value (gut microbiota [1]; Day 2) was “Absent” and the “Bacteria in the stool” value (gut microbiota [1]; Day 3) was “Absent”. The “Bacteria in the stool” value (gut microbiota [1]; Day 4) was “Absent”, the “Bacteria in the stool” value (gut microbiota [1]; Day 5) was “Absent” and the “Bacteria in the stool” value (gut microbiota [1]; Day 6) was “Absent”. For the same molecule, the “Bacteria in the stool” value (gut microbiota [1]; Day 7) was “Absent”, the “Bacteria in the stool” value (gut microbiota [1]; Day 8) was “Absent” and the “Bacteria in the stool” value (gut microbiota [1]; Day 9) was “Absent”. The “Bacteria in the stool” value (gut microbiota [1]; Day 10) was “Absent”, the “Bacteria in the stool” value (gut microbiota [1]; Day 11) was “Absent” and the “Bacteria in the stool” value (gut microbiota [1]; Day 12) was “Absent”. The “Bacteria in the stool” value (gut microbiota [1]; Day 13) was “Absent”, the “Bacteria in the stool” value (gut microbiota [1]; Day 14) was “Absent” and the “Bacteria in the stool” value (gut microbiota [1]; Day 15) was “Absent”. For the same molecule, the “Bacteria in the stool” value (gut microbiota [1]; Day 16) was “Absent”, the “Bacteria in the stool” value (gut microbiota [1]; Day 17) was “Absent” and the “Bacteria in the stool” value (gut microbiota [1]; Day 18) was “Absent”. The “Bacteria in the stool” value (gut microbiota [1]; Day 19) was “Absent”, the “Bacteria in the stool” value (gut microbiota [1]; Day 20) was “Absent” and the “Bacteria in the stool” value (gut microbiota [1]; Day 21) was “Absent”. For the same molecule, the “Bacteria in the stool” value (gut microbiota [1]; Day 22) was “Absent”, the “Bacteria in the stool” value (gut microbiota [1]; Day 23) was “Absent” and the “Bacteria in the stool” value (gut microbiota [1]; Day 24) was “Present”. The “Day at which stools showed normal gut flora” value (gut microbiota [1]; ampicillin for 10 days) was 24 days and the “No bacterial growth in stools until” value (gut microbiota [1]; ampicillin for 10 days) was 23 days.

`[H]/N=C(/N)N[C@H]1[C@H](O)[C@@H](O)[C@H](O[C@@H]2O[C@@H](C)[C@](O)(C=O)[C@H]2O[C@@H]2O[C@@H](CO)[C@H](O)[C@@H](O)[C@@H]2NC)[C@@H](N/C(N)=N\[H])[C@@H]1O` [Streptomycin alone, streptomycin] was tested, and the “Bacterial growth in stools” value (gut microbiota [2]; 24 hours after discontinuation of streptomycin) was “no bacterial growth”, the “Bacteria in the stool” value (gut microbiota [2]; Day 1) was “Absent” and the “Bacteria in the stool” value (gut microbiota [2]; Day 2) was “Absent”. For the same molecule, the “Bacteria in the stool” value (gut microbiota [2]; Day 3) was “Absent”, the “Bacteria in the stool” value (gut microbiota [2]; Day 4) was “Absent” and the “Bacteria in the stool” value (gut microbiota [2]; Day 5) was “Absent”. The “Bacteria in the stool” value (gut microbiota [2]; Day 6) was “Absent”, the “Bacteria in the stool” value (gut microbiota [2]; Day 7) was “Absent” and the “Bacteria in the stool” value (gut microbiota [2]; Day 8) was “Absent”. For the same molecule, the “Bacteria in the stool” value (gut microbiota [2]; Day 9) was “Absent”, the “Bacteria in the stool” value (gut microbiota [2]; Day 10) was “Present” and the “Time stools remained sterile” value (gut microbiota [2]; after streptomycin for 24 hours) was “up to nine”. For the same molecule, the “Day at which stools showed signs of the normal gastrointestinal tract flora” value (gut microbiota [2]; streptomycin for 24 hours) was 10 days and the “Time to elimination of aerobic Gram-negative organisms in all animals” value [3] was at most 24 h.

For `N[C@@H](Cc1cc(I)c(Oc2ccc(O)c(I)c2)c(I)c1)C(=O)O` [T3], the “Stool IAP activity, higher compared to euthyroid animals” value (IAP; Week 32, hyperthyroid animals) was “approximately 7 fold”, the “Stool IAP activity, higher compared to hypothyroid animals” value (IAP; Week 32, hyperthyroid animals) was about 15 fold and the “IAP activity in stools” value (IAP; Weeks 12-32, daily i.p. T3) was “increased IAP activity”.
